Test results published in patent publication US20150148306A1, “COMPOSITIONS AND METHODS FOR THE TREATMENT OF INFLAMMATION” (priority 2012, published 2015).

Experiment: physchem
Assay type: physicochemical
Details: water, thermodynamic from solid
Method: Measurement of the water solubility of the test compounds is accomplished by using methods well known to those skilled in the art. Specifically, to a weighed amount of the test compound of the example compound Formula I (1-1) distilled water was added in small proportions until a clear solution was obtained. The total volume of the solution is measured. The water solubility is calculated by dividing the weight of the salt, in milligrams (mg), by the volume of the solution, in mL. […] The compound of Formula I (1-1) is therefore, at least 372 times more soluble in water than EPA itself. This is a clear indication of an unexpectedly high degree of bioavailability of the compositions of the invention. Highly water soluble medicinal preparations, when administered orally, result in efficient absorption from the gastrointestinal tract in to systemic circulation. Furthermore, water soluble preparations are especially suitable for parenteral administration.

solubility: < 200 µg/mL
Compound: CC/C=C\C/C=C\C/C=C\C/C=C\C/C=C\CCCC(=O)O [EPA, Eicosapentaenoic Acid]
